Measured values reported in US20120165319A1, “INHIBITORS OF INTERLEUKIN-1 BETA CONVERTING ENZYME” (VERTEX PHARMACEUTICALS INCORPORATED, priority 1995, published 2012).

Columns and labels:
[1] = Measurement of blood levels of prodrugs of 214e after p.o. dosing in mice; assay type: in vivo, mouse; conditions: p.o. 50 mg/kg in 0.5% carboxymethylcellulose, blood at 1 and 7 hours
Protocol: Measurement of Blood Levels of Prodrugs of 214e
Mice were administered a p.o. dose of compounds 302 and 304a (50 mg/kg) prepared in 0.5% carboxymethylcellulose. Blood samples were collected at 1 and 7 hours after dosing. Serum was extracted by precipitation with an equal volume of acetonitrile containing 2% formic acid followed by centrifugation. The supernatant was analyzed by liquid chromatography-mass spectrometry (ESI-MS) with a detection level of 0.03 to 3 μg/ml.

[2] = system: IL-1β production, LPS-challenged mice; test: In vivo acute assay for efficacy as anti-inflammatory agent: LPS-induced IL-1β production in mice; parameters: species or system mouse; conditions: LPS challenged mice, PO, 50 mg/kg; * = values obtained in subsequent assays (Table 4)
Procedure, shortened: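 Serum IL-1β was measured by ELISA 7 h after an IP dose of 20 mg/kg LPS in CD1 mice, n=6 per group. Compounds in olive oil/DMSO/ethanol 90:5:5 were injected IP 1 h post-LPS (some analogs were dosed at challenge), and separate groups received 50 mg/kg by oral gavage.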

ICE = target: T1, ICE (Homo sapiens, UniProt P29466); test: Enzyme assay with UV-visible substrate (visible ICE assay, Succinyl-Tyr-Val-Ala-Asp-pNitroanilide); assay type: biochemical; conditions: Table 5
T1 sequence (P29466 120-297 limits assumed): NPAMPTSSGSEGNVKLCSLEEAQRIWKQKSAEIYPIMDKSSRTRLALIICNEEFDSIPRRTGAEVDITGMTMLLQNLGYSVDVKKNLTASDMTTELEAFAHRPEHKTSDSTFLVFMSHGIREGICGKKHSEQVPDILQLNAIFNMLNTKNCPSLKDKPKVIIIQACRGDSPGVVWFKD
T1 sequence (P29466 317-404 limits assumed): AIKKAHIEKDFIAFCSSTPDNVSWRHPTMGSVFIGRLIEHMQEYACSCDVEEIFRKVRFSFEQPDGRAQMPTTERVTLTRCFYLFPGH
Procedure, shortened: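 ICE preincubated with inhibitor in DMSO for 15 min at room temperature, then Suc-Tyr-Val-Ala-Asp-pNA added. pNA release read at 405-603 nm for 20 min at 37 °C, rate from linear fit in mOD/min. Ki and inhibition mode from fits of rates at varying inhibitor concentrations to standard kinetic equations.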

[3] = system: IL-1β, human peripheral blood mononuclear cells (PBMC); test: PBMC cell assay: IL-1β assay with human PBMC or enriched adherent mononuclear cells, LPS-stimulated; assay type: cell-based; conditions: Homo sapiens, PBMC, * = values obtained upon reassay
Procedure, shortened: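 Mature IL-1β is measured by ELISA in supernatants after 16–18 hr at 37 °C, 5% CO2, with LPS (5 ng/ml final) and test compound (0.1% DMSO final). Cells are human PBMC (6×10^6 cells/ml) or plate-adherent mononuclear cells (2.5−3.0×10^5 per well), and the 5–6 compound concentrations span the ICE Ki.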

IL-1β, human PBMC = test: Human PBMC assay (Example 27): IL-1β production; assay type: cell-based; conditions: LPS-stimulated human PBMCs (FIG. 5); read-out: IC50, decrease of IL-1β production
Protocol: (§1) Since the processing and secretion of biologically active IGIF is mediated by ICE, we compared the activity of a reversible ICE inhibitor (Ac-YVAD-CHO) on IL-1β and IFN-γ production in a peripheral blood mononuclear cell (PBMC) assay (Examples 27).
(§2) Human buffy coat cells were obtained from blood donors and peripheral blood mononuclear cells (PBMC) were isolated by centrifugation in LeukoPrep tubes (Becton-Dickinson, Lincoln Park, N.J.). PBMC were added (3×10^6/well) to 24 well Corning tissue culture plates and after 1 hr incubation at 37° C., non-adherent cells were removed by gently washing. Adherent mononuclear cells were stimulated with LPS (1 μg/ml) with or without ICE inhibitor in 2 ml RPMI-1640-10% FBS. After 16-18 hr incubation at 37° C., IGIF and IFN-γ were quantitated in culture supernatants by ELISA.

IFN-γ, human PBMC = test: Human PBMC assay (Example 27): IFN-γ production; assay type: cell-based; conditions: LPS-stimulated human PBMCs (FIG. 5); read-out: IC50, decrease of IFN-γ production
Protocol: as §1, §2

Row | Compound | blood levels when administered orally (in words) [1] | Inhibition of IL-1β Production, compound administered 0 hr relative to LPS challenge [2] | Inhibition of IL-1β Production, compound administered +1 hr relative to LPS challenge [2] | Inhibition of IL-1β Production, compound administered −1 hr relative to LPS challenge [2] | Inhibition of IL-1β Production, compound administered −2 hr relative to LPS challenge [2] | Ki (ICE) | IC50 [3] | IC50 (IL-1β, human PBMC) | IC50 (IFN-γ, human PBMC)
1 | COC1OC(=O)C[C@@H]1NC(=O)[C@@H]1CCCN2C(=O)CC[C@H](NC(=O)c3ccccc3)C(=O)N12 (stereo partly drawn) [Compound 304a, [1S,9S (2RS,3S)]9-Benzoylamino-6,10-dioxo-1,2,3,4,7,8,9,10-octahydro-N-(2-methoxy-5-oxo-tetrahydro-furan-3-yl)-6H-pyridazino[1,2-a][1,2]diazapine-1-carboxamide] | detectable blood levels | 68% | 37% | 33% | 30% | 200 nM | 1400 nM | – | –
2 | AcYVAD-CHO [Ac-YVAD-CHO, reference compound] | – | – | – | – | – | – | – | 2500 nM | 2500 nM
